{"source": "patent US20150010928A1", "about": "“MEANS AND METHODS FOR ASSESSING AN ENDOCRINE DISEASE OR DISORDER” (priority 2012, published 2015)", "key": {"female rats": {"test_system": "female rats", "assay": "Plasma metabolite profiling (GC-MS, LC-MS, SPE-LC-MS) in female rats dosed once daily over 28 days (OECD 407)", "assay_type": "in vivo, rat", "procedure": "Each dose group in the studies consisted of five rats per sex. Additional groups of each 5 male and female animals served as controls. […] All animals of the animal population were kept under the same constant temperature (20-24±3° C.) and the same constant humidity (30-70%). The animals of the animal population were fed ad libitum. The food to be used was essentially free of chemical or microbial contaminants. Drinking water was also offered ad libitum. Accordingly, the water was free of chemical and microbial contaminants as laid down in the European Drinking Water Directive 98/83/EG. The illumination period was 12 hours light followed by 12 hours darkness (12 hours light, from 6:00 to 18:00, and 12 hours darkness, from 18:00 to 6:00). […] The test substances (compounds) in the Tables 1 to 17 below were dosed and administered as described in the Table 18.\nIn the morning of day 7, 14, and 28, blood was taken from the retroorbital venous plexus from fasted anaesthetized animals. From each animal, 1 ml of blood was collected with EDTA as anticoagulant. The samples were centrifuged for generation of plasma. All plasma samples were covered with a N2 atmosphere and then stored at −80° C. until analysis.\nFor mass spectrometry-based metabolite profiling analyses plasma samples were extracted and a polar and a non-polar (lipid) fraction was obtained. For GC-MS analysis, the non-polar fraction was treated with methanol under acidic conditions to yield the fatty acid methyl esters. Both fractions were further derivatised with O-methyl-hydroxyamine hydrochloride and pyridine to convert Oxogroups to O-methyloximes and subsequently with a silylating agent before analysis. In LC-MS analysis, both fractions were reconstituted in appropriate solvent mixtures. HPLC was performed by gradient elution on reversed phase separation columns. Mass spectrometric detection which allows target and high sensitivity MRM (Multiple Reaction Monitoring) profiling in parallel to a full screen analysis was applied as described in WO2003073464.\nSteroids and their metabolites were measured by online SPE-LC-MS (Solid phase extraction-LC-MS).\nFollowing comprehensive analytical validation steps, the data for each analyte were normalized against data from pool samples. These samples were run in parallel through the whole process to account for process variability. The significance of treatment group values specific for sex, treatmentduration and metabolite was determined by comparing means of the treated groups to the means of the respective untreated control groups using WELCH-test and quantified with treatment ratios versus control and p-values.\nThe identification of the most important biomarkers per toxicity pattern was done by a ranking of the analytes in the tables below. Therefore the metabolic changes in reference treatments of a given pattern (shown in the table) were compared with changes of the same metabolite in other unrelated treatments. […] The maximum absolute value of the respective TVALUE was taken to indicate the most important metabolite for the pattern."}, "male rats": {"test_system": "male rats", "assay": "Plasma metabolite profiling (GC-MS, LC-MS, SPE-LC-MS) in male rats dosed once daily over 28 days (OECD 407)", "assay_type": "in vivo, rat", "settings": "high dose; for Cholesterol / Choline plasmalogen No 02 / Lignoceric acid (C24:0) / Sphingomyelin (d18:1, C16:0) / Sphingomyelin (d18:2, C16:0) / erythro-Sphingosine (d18:1): Table 14b", "how_it_was_run": "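Polar and lipid fractions profiled by GC-MS and LC-MS/MRM, steroids by online SPE-LC-MS; pool-normalized data compared to controls by Welch test as treatment ratios and p-values.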"}, "[1]": {"settings": "female rats, plasma, high dose, day 7"}, "[2]": {"settings": "female rats, plasma, high dose, day 14"}, "[3]": {"settings": "female rats, plasma, high dose, day 28"}}, "note": "Where a name gives a salt, the structure may show the parent alone. Marks after values point to notes of the source that are not given here."}
{"compound": "O=C(c1ccc(OCCN2CCCCC2)cc1)c1c(-c2ccc(O)cc2)sc2cc(O)ccc12", "note": "[Raloxifene Hydrochloride]", "values": [{"measurement": "Glycine, ratio versus control", "setting": "female rats; [1]", "value": "1.53 *"}, {"measurement": "Lysine, ratio versus control", "setting": "female rats; [1]", "value": "0.8 *"}, {"measurement": "Lysophosphatidylcholine (C17:0), ratio versus control", "setting": "female rats; [1]", "value": "0.74 *"}, {"measurement": "Phosphatidylcholine (C18:0, C20:3), ratio versus control", "setting": "female rats; [1]", "value": "0.73 *"}, {"measurement": "Phosphatidylcholine (C18:0, C22:6), ratio versus control", "setting": "female rats; [1]", "value": "0.87 *"}, {"measurement": "Proline, ratio versus control", "setting": "female rats; [1]", "value": "1.16 *"}, {"measurement": "TAG (C16:0, C18:2), ratio versus control", "setting": "female rats; [1]", "value": "2.05 *"}, {"measurement": "TAG (C18:2, C18:3), ratio versus control", "setting": "female rats; [1]", "value": "1.84 *"}, {"measurement": "TAG (DAG-Fragment), ratio versus control", "setting": "female rats; [1]", "value": "1.8 *"}, {"measurement": "TAG No 059, ratio versus control", "setting": "female rats; [1]", "value": "1.61 *"}, {"measurement": "Thyroxine (T4), ratio versus control", "setting": "female rats; [1]", "value": "1.36^"}, {"measurement": "Coenzyme Q9, ratio versus control", "setting": "female rats; [2]", "value": "1.29 *"}, {"measurement": "Glycine, ratio versus control", "setting": "female rats; [2]", "value": "1.51 *"}, {"measurement": "Lysine, ratio versus control", "setting": "female rats; [2]", "value": "0.61 *"}, {"measurement": "Lysophosphatidylcholine (C17:0), ratio versus control", "setting": "female rats; [2]", "value": "0.72 *"}, {"measurement": "Phosphatidylcholine (C16:0, C20:5), ratio versus control", "setting": "female rats; [2]", "value": "1.25 *"}, {"measurement": "Phosphatidylcholine (C18:0, C20:3), ratio versus control", "setting": "female rats; [2]", "value": "0.86 *"}, {"measurement": "Phosphatidylcholine (C18:0, C22:6), ratio versus control", "setting": "female rats; [2]", "value": "0.85 *"}, {"measurement": "Proline, ratio versus control", "setting": "female rats; [2]", "value": "1.2 *"}, {"measurement": "TAG (C16:0, C18:2), ratio versus control", "setting": "female rats; [2]", "value": "1.27 *"}, {"measurement": "TAG (C18:2, C18:3), ratio versus control", "setting": "female rats; [2]", "value": "1.31 *"}, {"measurement": "TAG (DAG-Fragment), ratio versus control", "setting": "female rats; [2]", "value": "1.4 *"}, {"measurement": "TAG No 059, ratio versus control", "setting": "female rats; [2]", "value": "1.47 *"}, {"measurement": "Thyroxine (T4), ratio versus control", "setting": "female rats; [2]", "value": "2.5 *"}, {"measurement": "Coenzyme Q9, ratio versus control", "setting": "female rats; [3]", "value": "1.31 *"}, {"measurement": "Glycine, ratio versus control", "setting": "female rats; [3]", "value": "1.4 *"}, {"measurement": "Lysine, ratio versus control", "setting": "female rats; [3]", "value": "0.81 *"}, {"measurement": "Lysophosphatidylcholine (C17:0), ratio versus control", "setting": "female rats; [3]", "value": "0.72 *"}, {"measurement": "Phosphatidylcholine (C18:0, C20:3), ratio versus control", "setting": "female rats; [3]", "value": "0.81 *"}, {"measurement": "Phosphatidylcholine (C18:0, C22:6), ratio versus control", "setting": "female rats; [3]", "value": "0.72 *"}, {"measurement": "TAG (C16:0, C18:2), ratio versus control", "setting": "female rats; [3]", "value": "1.95 *"}, {"measurement": "TAG (C18:2, C18:3), ratio versus control", "setting": "female rats; [3]", "value": "1.64 *"}, {"measurement": "TAG (DAG-Fragment), ratio versus control", "setting": "female rats; [3]", "value": "1.76 *"}, {"measurement": "TAG No 059, ratio versus control", "setting": "female rats; [3]", "value": "1.61 *"}, {"measurement": "Thyroxine (T4), ratio versus control", "setting": "female rats; [3]", "value": "1.57 *"}, {"measurement": "Coenzyme Q9, ratio versus control", "setting": "female rats; rat, in vivo", "value": "1.18 *"}, {"measurement": "Proline, ratio versus control", "setting": "female rats; rat, in vivo", "value": "1.14 *"}, {"measurement": "Cholesterol", "setting": "male rats; m7", "value": 0.44}, {"measurement": "Choline plasmalogen No 02", "setting": "male rats; m7", "value": 0.67}, {"measurement": "Lignoceric acid (C24:0)", "setting": "male rats; m7", "value": 0.45}, {"measurement": "Sphingomyelin (d18:1, C16:0)", "setting": "male rats; m7", "value": 0.52}, {"measurement": "Sphingomyelin (d18:2, C16:0)", "setting": "male rats; m7", "value": 0.82}, {"measurement": "erythro-Sphingosine (d18:1)", "setting": "male rats; m7", "value": 0.38}, {"measurement": "Cholesterol", "setting": "male rats; m14", "value": 0.47}, {"measurement": "Choline plasmalogen No 02", "setting": "male rats; m14", "value": 0.69}, {"measurement": "Lignoceric acid (C24:0)", "setting": "male rats; m14", "value": 0.39}, {"measurement": "Sphingomyelin (d18:1, C16:0)", "setting": "male rats; m14", "value": 0.62}, {"measurement": "Sphingomyelin (d18:2, C16:0)", "setting": "male rats; m14", "value": 0.78}, {"measurement": "erythro-Sphingosine (d18:1)", "setting": "male rats; m14", "value": 0.49}, {"measurement": "Cholesterol", "setting": "male rats; m28", "value": 0.63}, {"measurement": "Choline plasmalogen No 02", "setting": "male rats; m28", "value": 0.65}, {"measurement": "Lignoceric acid (C24:0)", "setting": "male rats; m28", "value": 0.64}, {"measurement": "Sphingomyelin (d18:1, C16:0)", "setting": "male rats; m28", "value": 0.65}, {"measurement": "Sphingomyelin (d18:2, C16:0)", "setting": "male rats; m28", "value": 0.63}, {"measurement": "erythro-Sphingosine (d18:1)", "setting": "male rats; m28", "value": 0.57}]}
{"compound": "ACTH: adrenocorticotropin (ACTH) produced in the adenohypophysis of the pituitary gland (SYSMEHFRWGKPVGKKRRPVKVYPNGAEDESAEAFPLEF; Corticotropin; UniProt P01189 138-176, looked up)", "values": [{"measurement": "3-Hydroxybutyrate, ratio versus control", "setting": "female rats; [3]", "value": "0.85 *"}, {"measurement": "5-Oxoproline, ratio versus control", "setting": "female rats; [3]", "value": "1.05 *"}, {"measurement": "18-Hydroxy-11-deoxycorticosterone, ratio versus control", "setting": "female rats; [3]", "value": "0.69 *"}, {"measurement": "21-Hydroxyprogesterone (11-Deoxycorticosterone), ratio versus control", "setting": "female rats; [3]", "value": "0.31 *"}, {"measurement": "Biotin, ratio versus control", "setting": "female rats; [3]", "value": "0.7 *"}, {"measurement": "Choline plasmalogen No 03, ratio versus control", "setting": "female rats; [3]", "value": "0.77 *"}, {"measurement": "Citrate, ratio versus control", "setting": "female rats; [3]", "value": "0.92 *"}, {"measurement": "Corticosterone, ratio versus control", "setting": "female rats; [3]", "value": "0.67 *"}, {"measurement": "Ketoleucine, ratio versus control", "setting": "female rats; [3]", "value": "0.76 *"}, {"measurement": "Lactate, ratio versus control", "setting": "female rats; [3]", "value": "0.68 *"}, {"measurement": "Lysophosphatidylcholine (C18:2), ratio versus control", "setting": "female rats; [3]", "value": "1.06 *"}, {"measurement": "Lysophosphatidylcholine (C20:4), ratio versus control", "setting": "female rats; [3]", "value": "1.11 *"}, {"measurement": "Malate, ratio versus control", "setting": "female rats; [3]", "value": "0.76 *"}, {"measurement": "Mannose, ratio versus control", "setting": "female rats; [3]", "value": "1.04 *"}, {"measurement": "TAG No 059, ratio versus control", "setting": "female rats; [3]", "value": "1.62 *"}, {"measurement": "Tyrosine, ratio versus control", "setting": "female rats; [3]", "value": "1.26 *"}, {"measurement": "alpha-Tocopherol, ratio versus control", "setting": "female rats; [3]", "value": "0.95 *"}, {"measurement": "3,4-Dihydroxyphenylalanine (DOPA), ratio versus control", "setting": "male rats; male rats, plasma, day 28", "value": "0.86 *"}, {"measurement": "3-Hydroxybutyrate, ratio versus control", "setting": "male rats; male rats, plasma, day 28", "value": "0.65 *"}, {"measurement": "18-Hydroxy-11-deoxycorticosterone, ratio versus control", "setting": "male rats; male rats, plasma, day 28", "value": "0.43 *"}, {"measurement": "21-Hydroxyprogesterone (11-Deoxycorticosterone), ratio versus control", "setting": "male rats; male rats, plasma, day 28", "value": "0.18 *"}, {"measurement": "Biotin, ratio versus control", "setting": "male rats; male rats, plasma, day 28", "value": "0.64 *"}, {"measurement": "Citrate, ratio versus control", "setting": "male rats; male rats, plasma, day 28", "value": "0.82 *"}, {"measurement": "Corticosterone, ratio versus control", "setting": "male rats; male rats, plasma, day 28", "value": "0.42 *"}, {"measurement": "Ketoleucine, ratio versus control", "setting": "male rats; male rats, plasma, day 28", "value": "0.81 *"}, {"measurement": "Lysophosphatidylethanolamine (C22:5), ratio versus control", "setting": "male rats; male rats, plasma, day 28", "value": "1.22 *"}, {"measurement": "Phosphatidylcholine No 04, ratio versus control", "setting": "male rats; male rats, plasma, day 28", "value": "0.8 *"}, {"measurement": "Progesterone, ratio versus control", "setting": "male rats; male rats, plasma, day 28", "value": "0.14 *"}, {"measurement": "Urea, ratio versus control", "setting": "male rats; male rats, plasma, day 28", "value": "1.28 *"}]}
